Results as given in patent publication US5459064A, “Protease” (Shionogi & Co., Ltd., priority 1990, dated 1995).
Residues, ends and D or L forms follow the SMILES beside them. *: point of attachment. Cbz = O=C(OCc1ccccc1)*; CH2Cl = ClC*

Experiments:
[1] = molecular target: BLase (the present enzyme) (Bacillus licheniformis, UniProt P80057); assay: Effect of inhibitors on the present enzyme; type: biochemical, Bacillus licheniformis ATCC No. 14580
[2] = test system: oxidized insulin B chain; assay: Cleavage of oxidized insulin B chain, HPLC peptide mapping; type: biochemical; conditions: 50 mM ammonium bicarbonate pH 7.8, enzyme/substrate 1/100 (W/W)

BLase (the present enzyme), sequence (P80057 95-316): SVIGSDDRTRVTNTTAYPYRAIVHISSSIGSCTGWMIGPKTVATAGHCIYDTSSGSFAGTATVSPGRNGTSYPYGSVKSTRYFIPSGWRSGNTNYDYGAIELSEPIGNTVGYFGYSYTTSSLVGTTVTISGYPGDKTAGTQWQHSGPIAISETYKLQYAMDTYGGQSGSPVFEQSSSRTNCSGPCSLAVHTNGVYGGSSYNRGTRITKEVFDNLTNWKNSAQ

Compound	Inhibition of the present enzyme [1]	Inhibitory effect after addition of metal ions [1]	Maximum inhibition ratio [1]	Action on oxidized insulin B chain (peptide mapping) [2]
O=C(O)CN(CCN(CC(=O)O)CC(=O)O)CC(=O)O [EDTA]	partially inhibited	completely nullified	approximately 72%	–
CC(C)C[C@H](NC(=O)[C@H](Cc1ccccc1)NC(=O)OCc1ccccc1)C(=O)N[C@@H](CCC(=O)O)C(=O)CCl [Z-Phe Leu Glu CH2 Cl] (Cbz-Phe-Leu-Glu-CH2Cl)	completely inhibited	–	–	–
V8 protease: Serine protease from the V8 strain of Staphylococcus aureus, cleaves at the carboxyl terminal of glutamic acid residues	–	–	–	the peptide bonds at the carboxyl termini of the glutamic acid residues were cleaved
